Patent US6632793B1, “Immunological activity for a peptide of the limulus anti-LPS factor” (Centro de Ingenieria Genetica y Biotecnologia, priority 1997, dated 2003)
Where a SMILES comes first, the peptide text is derived from it.

Experiments:
[1] = tested on: Mengo virus on cell line Hep-2; assay: Antiviral effect: inhibition of the cytopathic effect of Mengo virus on cell line Hep-2; type: cell-based; settings: for Antiviral effect, 1 / Antiviral effect, 2 / Antiviral effect, 3 / Antiviral effect, Mean: 24 h pre-incubation; for Antiviral effect, 1: experiment 1; for Antiviral effect, 2: experiment 2; for Antiviral effect, 3: experiment 3; for Antiviral effect, Mean: mean of 3
Method: (§1) Then the cells were washed with saline solution and infected with […] of Mengo virus, provide by Institute of Molecular Biology, University of Zurich, which is multiplied in the cell line L929 murine fibroblasts. 18 h later degree of cell destruction was measured by fixation and staining, generally with crystal violet, for reading of cytophatic effect was used a photometer Ultramicroanalytical System (SUMA). A computer program in Pascal UCSD language for the microcomputer system was developed for all calculations and corrections (Ferrero et al., 1994, Biotecnologia Aplicada. Vol. 1:). In this case serial dilution's of human γ-IFN 70 000 IU/ml (MRI, Freeze-dried Reference Human Recombinant Gamma Interferon) was used as standard in order to define unit of antiviral activity. For this reason the antiviral protection shown by the peptide is related to International Units of γ-IFN (Ul/ml). As a negative control were used different peptides from proteins that bind endotoxin. LPS at 10 ng/ml was used as a positively control because is well known that it induced the production of IFNs (Manthey et al., 1994, J. Immunology. Vol. 153: 2653-2663). One unit of antiviral activity is define as the quantity of IFN able to produce an 50% inhibition of the viral replication.

[2] = tested on: bovine enterovirus on cell line MDBK; assay: Antiviral effect: inhibition of the cytopathic effect of bovine enterovirus on cell line MDBK; type: cell-based; settings: 10 μM, 20 μM and 40 μM; FIG. 5
Method: Determination of the antiviral activity was estimate by means of the inhibition of the cytopathic effect produced by a virus on cell line MDBK, essentially as is described in the example 1. The cells used in this approach were MDBK a kidney normal bovine cells line [ATCC No. 6071], which are infected with […] of bovine enterovirus. Increasing quantities of LALF peptide were used in order to induced protection in the-cells: 10 μM, 20 μM and 40 μM. In this case serial dilution's of human α-IFN 70 000 IU/ml (MRI, Freeze-dried Reference Human Recombinant Alpha Interferon) was used as standard in order to define unit of antiviral activity. One unit of antiviral activity is defining as the quantity of IFN able to produce a 50% inhibition of the viral replication.
The cells were treated with increasing quantities of peptide during 18 hours. Afterwards, the cells were challenged with a bovine enterovirus. Antiviral activity is referred as U/ml α-IFN.

human mononuclear cells = assay: Antiviral effect on Hep-2 cells of supernatant from human mononuclear cells stimulated with peptide; type: cell-based; settings: for Antiviral effect of supernatant, 1: supernatant on Hep-2, experiment 1; for Antiviral effect of supernatant, 2: supernatant on Hep-2, experiment 2; for Antiviral effect of supernatant, 3: supernatant on Hep-2, experiment 3; for Antiviral effect of supernatant, Mean: supernatant on Hep-2, mean of 3
Method: as §1
Venous blood was obtained from healthy volunteers and Ficoll-Hypaque centrifugation, fractionated mononuclear cells. The mononuclear cells were washed and resuspended in endotoxin-free RPMI-1640 culture medium supplemented with 10% fetal calf serum. Concentration of 2×10^6 cells/ml were aliquoted into 24-well microtiter plates (Nunc, Denmark). The cells were then incubated with 14 and 28 μg/ml of different peptides: Limulus anti-LPS factor31-52 (LALF), Lipopolysaccharide Binding Protein86-99 (LBP) and 18 kDa Cationic Antimicrobial Protein108-128 (CAP-18), at 37° C. for 18 hours in 5% CO2. The cells were centrifuged at 3000 rpm for 5 min and then serial dilutions of supematants were assays for antiviral activity using the procedures described in the example 2.

[3] = tested on: TNFα from human mononuclear cells; assay: TNF-α synthesis by human mononuclear cells (ELISA of supernatant); type: cell-based; settings: for TNF - α: 18 h, mean of three donors
Method: Venous blood was obtained from healthy volunteers and Ficoll-Hypaque centrifugation, fractionated mononuclear cells. The mononuclear cells were washed and resuspended in endotoxic-free RPMI 1640 medium supplemented with 10% fetal calf serum. 30×10^6 cells were aliquoted into plates p-60 (Nunc, Denmark). The cells were incubated with 14 or 28 μg/ml LALF at 37° C. for 18 hours in 5% CO2 and then centrifuged at 3000 rpm during 5 min. The synthesis of TNFα in the supernatant was determined by specific enzyme-linked immunoadsorbent assay (ELISA), kindly provided by Dr. W. Buurman (University Hospital Maastrich, The Netherlands).

Pseudomona aerukinosa = assay: Survival in mice model of fulminating Gram-negative peritoneal sepsis; type: in vivo, mice BalB/c
Method: A model of fulminating Gram-negative peritoneal sepsis was developed in mice BalB/c to characterize the efficacy of LALF peptide in protecting an immunologically intact host against serious infections. Groups of mice received LALF peptide (14 μg/0.1 ml) or saline control (0.1 ml) intraperitoneally 20 hours prior to infectious challenge. A doses of Pseudomona aerukinosa (2×10^8 bacterial/mice) producing a total mortality of approximately 90% (Browder et al., 1987, Surgery. Vol. 102: 206-214) was used in order to induce an experimental peritonitis. Survivor's mice were counted each 24 hours during 120 hours after bacterial challenge. Survival data were analyzed by statistical test Kaplan-Meyer, the significance analysis was determined using a long-rank test, table 5. Blood was collected for TNF quantification from the retroorbital sinus at the time 0, 20, 40, 60, 90, 120, 180, 240 min in the control group and peptide treated-mice. The concentration of TNF-α in mouse serum was determined using a specific ELISA kindly provided by. Dr. W. Buurman (University Hospital Maastrich, The Netherlands). FIG. 4.

TNF-α in mouse serum = assay: Serum TNF-α after intravenous injection of peptide in mice (ELISA); type: in vivo, mice BalB/c; settings: 50 μg intravenously; serum at 0 h, 6 h, 24 h and 48 h; FIG. 3
Method: This approach was developed in mice BalB/c between 6-8 old. The mice were injected intravenously with 50 μg of peptide in 0.1 ml [2.5 mg/kg of body weight] or saline solution as a control. The behavior of animals was observed each 4 hours during 24 h. Survival was followed for one week. Blood was collected for TNF-α quantification from the retroorbital sinus at the time 0 h. 6 h, 24 h and 48 h in the control group and peptide treated-mice. The concentration of TNF-α in mouse serum was determined using a specific ELISA kindly provided by Dr. W. Buurman (University Hospital Maastrich, The Netherlands).

[4] = mononuclear cells stimulated with 14 μg/ml for 18 h
[5] = mononuclear cells stimulated with 28 μg/ml for 18 h

CC[C@H](C)[C@H](NC(=O)[C@H](CCCNC(=N)N)NC(=O)[C@H](Cc1ccc(O)cc1)NC(=O)[C@H](Cc1c[nH]cn1)NC(=O)[C@@H](N)CS)C(=O)N[C@@H](CCCCN)C(=O)N1CCC[C@H]1C(=O)N[C@H](C(=O)N[C@@H](Cc1ccccc1)C(=O)N[C@@H](CCCNC(=N)N)C(=O)N[C@@H](CCCNC(=N)N)C(=O)N[C@@H](CC(C)C)C(=O)N[C@@H](CCCCN)C(=O)N[C@@H](Cc1c[nH]c2ccccc12)C(=O)N[C@@H](CCCCN)C(=O)N[C@@H](Cc1ccc(O)cc1)C(=O)N[C@@H](CCCCN)C(=O)NCC(=O)N[C@@H](CCCCN)C(=O)N[C@@H](Cc1ccccc1)C(=O)N[C@@H](Cc1c[nH]c2ccccc12)C(=O)N[C@@H](CS)C(=O)O)[C@@H](C)O [LALF] (H-CHYRIKPTFRRLKWKYKGKFWC-OH)
Induction of an antiviral state in Hep-2 cells (in words) ([1]; 14 and 28 μg/ml): able to induce an antiviral state
Antiviral effect, 1 ([1]; Hep-2, 14 μg/ml): 35 IU/ml γ-IFN
Antiviral effect, 2 ([1]; Hep-2, 14 μg/ml): 31.7 IU/ml γ-IFN
Antiviral effect, 3 ([1]; Hep-2, 14 μg/ml): 22 IU/ml γ-IFN
Antiviral effect, Mean ([1]; Hep-2, 14 μg/ml): 29.5 IU/ml γ-IFN
Antiviral effect, 1 ([1]; Hep-2, 28 μg/ml): 28.7 IU/ml γ-IFN
Antiviral effect, 2 ([1]; Hep-2, 28 μg/ml): 27 IU/ml γ-IFN
Antiviral effect, 3 ([1]; Hep-2, 28 μg/ml): 31.4 IU/ml γ-IFN
Antiviral effect, Mean ([1]; Hep-2, 28 μg/ml): 28.3 IU/ml γ-IFN
Protection of cell line MDBK against bovine enterovirus (in words) [2]: able to induce protection in the cell line MDBK in a doses dependent manner
Release of protective mediator by human peripheral blood mononuclear cells (in words) (human mononuclear cells; 14 and 28 μg/ml, 18 h): induce them to release certain mediator capable of conferring protection to the Hep-2 cells against viral infections
Antiviral effect of supernatant, 1 (human mononuclear cells; [4]): 28 IU/ml γ-IFN
Antiviral effect of supernatant, 2 (human mononuclear cells; [4]): 27.6 IU/ml γ-IFN
Antiviral effect of supernatant, 3 (human mononuclear cells; [4]): 20.4 IU/ml γ-IFN
Antiviral effect of supernatant, Mean (human mononuclear cells; [4]): 25.3 IU/ml γ-IFN
Antiviral effect of supernatant, 1 (human mononuclear cells; [5]): 28.4 IU/ml γ-IFN
Antiviral effect of supernatant, 2 (human mononuclear cells; [5]): 28 IU/ml γ-IFN
Antiviral effect of supernatant, 3 (human mononuclear cells; [5]): 20 IU/ml γ-IFN
Antiviral effect of supernatant, Mean (human mononuclear cells; [5]): 25.4 IU/ml γ-IFN
TNF - α ([3]; 14 μg/ml): 0.84 ng/mL
TNF - α ([3]; 28 μg/ml): 0.80 ng/mL
TNF-α levels versus control buffer treated cells (in words) ([3]; 14-28 μg/ml alone): did not induce increased levels of TNF-α over the control buffer treated cells
Survival (%) (Pseudomona aerukinosa; 14 μg/0.1 ml intraperitoneally 20 hours prior to challenge with 2×10^8 bacteria/mouse, followed 120 hours): 36%
Protection from lethal bacterial challenge (in words) (Pseudomona aerukinosa; administrated prophylactically): protects mice from lethal bacterial challenge
TNF-α production in vivo (in words) (TNF-α in mouse serum): does not stimulate TNF-α production
